Tested on: rat
Test: Intracisternal assay: convulsant response (seizure potential)
Assay type: in vivo
Conditions: injection of 20 micro-liters into the intracisternal cavity, amount giving a 50% seizure rate
Text: Central to the instant invention was the safety benefit realized by the incorporation of the cyano group to the imidazoliummethylbiphenyl moiety of the carbapenem nucleus, as shown in Table II below. […] This difference in activity was statistically significant and allows one to anticipate a much greater CNS safety profile for the compounds depicted.
The figure reported in Table II was the amount of active compound giving a 50% seizure rate in the rat, serving as a model for humans. For each compound, different concentrations were prepared in water and for each concentration, a group of animals were given an injection of 20 micro-liters into the intracisternal cavity. The seizure response of each member of the group was noted by observation.

Compound	CONVULSANT RESPONSE MCG/HEAD-ED50 [MCG/HEAD]
CC(O)C1C(=O)N2C(C(=O)[O-])=C(c3cc(C#N)cc(-c4ccc(C[n+]5ccn(CCO)c5)cc4)c3)CC12 (centres unmarked) [R^c = CH2 CH2 OH, R' = CN]	100
CC(O)C1C(=O)N2C(C(=O)[O-])=C(c3cccc(-c4ccc(C[n+]5ccn(CCO)c5)cc4)c3)CC12 (centres unmarked) [R^c = CH2 CH2 OH, R' = H]	35
CC(O)C1C(=O)N2C(C(=O)[O-])=C(c3cc(Br)cc(-c4ccc(C[n+]5ccn(C)c5)cc4)c3)CC12 (centres unmarked) [R^c = CH3, R' = Br]	< 12.5
CC(O)C1C(=O)N2C(C(=O)[O-])=C(c3cc(C#N)cc(-c4ccc(C[n+]5ccn(C)c5)cc4)c3)CC12 (centres unmarked) [R^c = CH3, R' = CN]	100
CC(O)C1C(=O)N2C(C(=O)[O-])=C(c3cccc(-c4ccc(C[n+]5ccn(C)c5)cc4)c3)CC12 (centres unmarked) [R^c = CH3, R' = H]	35
